From US11739070B2, “C5A receptor modulators” (IDORSIA PHARMACEUTICALS LTD, priority 2018, dated 2023)

The compounds below were run against T1, C5AR1 (Homo sapiens, UniProt P21730) (assay: hC5a DISCO IC50 assay (PathHunter beta-arrestin, antagonist mode)). Settings: CHO-K1 C5AR1 beta-arrestin cell line; antagonist vs 1-10 nM C5a agonist; geometric mean values; read-out: C5aR IC50.
T1 construct: host or cells: CHO-K1
T1 sequence (P21730 1-350): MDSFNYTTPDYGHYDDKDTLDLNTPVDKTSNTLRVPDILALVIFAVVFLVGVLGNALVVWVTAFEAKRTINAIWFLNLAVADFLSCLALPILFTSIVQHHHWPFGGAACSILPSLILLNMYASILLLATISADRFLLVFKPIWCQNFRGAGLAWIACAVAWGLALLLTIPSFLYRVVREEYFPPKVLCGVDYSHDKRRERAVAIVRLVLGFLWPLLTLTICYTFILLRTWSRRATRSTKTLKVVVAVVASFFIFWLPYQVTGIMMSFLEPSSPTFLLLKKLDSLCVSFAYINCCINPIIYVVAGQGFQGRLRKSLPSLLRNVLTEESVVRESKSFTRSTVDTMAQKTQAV
Format: cell-based
Summary of the method: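 Antagonist added first, then 1-10 nM C5a agonist; cells incubated 1.5 h at 37 °C. Beta-arrestin signal developed with PathHunter detection reagent, 45 min at RT. IC50 in nmol/l from serial antagonist dilutions, reported as geometric mean of several measurements.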

Compound | IC50 [nM]
COc1cccc2c1n(Cc1ccccc1C(F)(F)F)c(=O)n2C1CCN(C(=O)OC(C)(C)C)CC1C (stereo not drawn) [Example 146, 4-[4-Methoxy-2-oxo-3-(2-trifluoromethyl-benzyl)-2,3-dihydro-benzoimidazol-1-yl]-3-methyl-piperidine-1-carboxylic acid tert-butyl ester] | 201
COc1cccc2c1n(Cc1ccccc1C(F)(F)F)c(=O)n2C1CCN(c2c(C)cccc2F)CC1C (stereo not drawn) [Example 147, 1-[1-(2-Fluoro-6-methyl-phenyl)-3-methyl-piperidin-4-yl]-4-methoxy-3-(2-trifluoromethyl-benzyl)-1,3-dihydro-benzoimidazol-2-one] | 20
COc1cccc2c1n(Cc1ccccc1C(F)(F)F)c(=O)n2[C@@H]1CCN(c2c(F)cccc2C(C)OC)C1 (stereo partly drawn) [Example 148, 1-{(R)-1-[2-Fluoro-6-(1-methoxy-ethyl)-phenyl]-pyrrolidin-3-yl}-4-methoxy-3-(2-trifluoromethyl-benzyl)-1,3-dihydro-benzoimidazol-2-one] | 28
Cc1cccc(F)c1N1CC[C@@H](n2c(=O)n(Cc3ccccc3C(F)(F)F)c3c(OC4COC4)cccc32)C1 [Example 149, 1-[(R)-1-(2-Fluoro-6-methyl-phenyl)-pyrrolidin-3-yl]-4-(oxetan-3-yloxy)-3-(2-trifluoromethyl-benzyl)-1,3-dihydro-benzoimidazol-2-one] | 14
Cc1cccc(F)c1N1CC[C@@H](n2c(=O)n(Cc3ccccc3C(F)(F)F)c3c(OCCO)cccc32)C1 [Example 150, 1-[(R)-1-(2-Fluoro-6-methyl-phenyl)-pyrrolidin-3-yl]-4-(2-hydroxy-ethoxy)-3-(2-trifluoromethyl-benzyl)-1,3-dihydro-benzoimidazol-2-one] | 11
Cc1cccc(F)c1N1CC[C@@H](n2c(=O)n(Cc3ccccc3C(F)(F)F)c3c(OCC4COC(C)(C)O4)cccc32)C1 (stereo partly drawn) [Example 151, 4-(2,2-Dimethyl-[1,3]dioxolan-4-ylmethoxy)-1-[(R)-1-(2-fluoro-6-methyl-phenyl)-pyrrolidin-3-yl]-3-(2-trifluoromethyl-benzyl)-1,3-dihydro-benzoimidazol-2-one] | 31
Cc1cccc(F)c1N1CC[C@@H](n2c(=O)n(Cc3ccccc3C(F)(F)F)c3c(OCC(O)CO)cccc32)C1 (stereo partly drawn) [Example 152, 4-(2,3-Dihydroxy-propoxy)-1-[(R)-1-(2-fluoro-6-methyl-phenyl)-pyrrolidin-3-yl]-3-(2-trifluoromethyl-benzyl)-1,3-dihydro-benzoimidazol-2-one] | 38
COc1cccc2c1n(Cc1cncnc1C(F)(F)F)c(=O)n2[C@@H]1CCN(c2c(F)cccc2C#N)C1 [Example 153, 3-Fluoro-2-{(R)-3-[4-methoxy-2-oxo-3-(4-trifluoromethyl-pyrimidin-5-ylmethyl)-2,3-dihydro-benzoimidazol-1-yl]-pyrrolidin-1-yl}-benzonitrile] | 215
COc1cccc2c1n(Cc1ccccc1C(F)(F)F)c(=O)n2[C@@H]1CCN(c2c(F)cccc2[N+](=O)[O-])C1 [Example 154, 1-[(R)-1-(2-Fluoro-6-nitro-phenyl)-pyrrolidin-3-yl]-4-methoxy-3-(2-trifluoromethyl-benzyl)-1,3-dihydro-benzoimidazol-2-one] | 23
COc1cccc2c1n(Cc1ccccc1C(F)(F)F)c(=O)n2[C@@H]1CCN(c2c(N)cccc2F)C1 [Example 155, 1-[(R)-1-(2-Amino-6-fluoro-phenyl)-pyrrolidin-3-yl]-4-methoxy-3-(2-trifluoromethyl-benzyl)-1,3-dihydro-benzoimidazol-2-one] | 15
COc1cccc2c1n(Cc1ccccc1C(F)(F)F)c(=O)n2[C@@H]1CCN(c2c(F)cccc2Br)C1 [Example 156, 1-[(R)-1-(2-Bromo-6-fluoro-phenyl)-pyrrolidin-3-yl]-4-methoxy-3-(2-trifluoromethyl-benzyl)-1,3-dihydro-benzoimidazol-2-one] | 21
COc1cccc2c1n(Cc1ccccc1C(F)(F)F)c(=O)n2[C@@H]1CCN(c2nncc(Cl)c2Cl)C1 [Example 157, 1-[(R)-1-(4,5-Dichloro-pyridazin-3-yl)-pyrrolidin-3-yl]-4-methoxy-3-(2-trifluoromethyl-benzyl)-1,3-dihydro-benzoimidazol-2-one] | 630
COc1cccc2c1n(Cc1ccccc1C(F)(F)F)c(=O)n2[C@@H]1CCN(c2c(Cl)cnnc2Cl)C1 [Example 158, 1-[(R)-1-(3,5-Dichloro-pyridazin-4-yl)-pyrrolidin-3-yl]-4-methoxy-3-(2-trifluoromethyl-benzyl)-1,3-dihydro-benzoimidazol-2-one] | 683
COc1cccc2c1n(Cc1ccccc1C(F)(F)F)c(=O)n2[C@@H]1CCN(c2c(F)cccc2C#CCN2CCOCC2)C1 [Example 159, 1-{(R)-1-[2-Fluoro-6-(3-morpholin-4-yl-prop-1-ynyl)-phenyl]-pyrrolidin-3-yl}-4-methoxy-3-(2-trifluoromethyl-benzyl)-1,3-dihydro-benzoimidazol-2-one] | 73
COc1cccc2c1n(Cc1ccccc1C(F)(F)F)c(=O)n2[C@@H]1CCN(c2ccccc2F)C1 [Example 160, 1-[(R)-1-(2-Fluoro-phenyl)-pyrrolidin-3-yl]-4-methoxy-3-(2-trifluoromethyl-benzyl)-1,3-dihydro-benzoimidazol-2-one] | 35
COc1cccc2c1n(Cc1ccccc1C(F)(F)F)c(=O)n2[C@@H]1CCN(c2c(F)cccc2N2CCOCC2)C1 [Example 161, 1-[(R)-1-(2-Fluoro-6-morpholin-4-yl-phenyl)-pyrrolidin-3-yl]-4-methoxy-3-(2-trifluoromethyl-benzyl)-1,3-dihydro-benzoimidazol-2-one] | 69
COc1cccc2c1n(Cc1ccccc1C(F)(F)F)c(=O)n2[C@@H]1CCN(c2c(F)cccc2CCCN2CCOCC2)C1 [Example 162, 1-{(R)-1-[2-Fluoro-6-(3-morpholin-4-yl-propyl)-phenyl]-pyrrolidin-3-yl}-4-methoxy-3-(2-trifluoromethyl-benzyl)-1,3-dihydro-benzoimidazol-2-one] | 135
COc1cccc2c1n(Cc1ccccc1C(F)(F)F)c(=O)n2[C@@H]1CCN(c2c(F)cccc2C(C)N2CC(OC)C2)C1 (stereo partly drawn) [Example 163, 1-((R)-1-{2-Fluoro-6-[1-(3-methoxy-azetidin-1-yl)-ethyl]-phenyl}-pyrrolidin-3-yl)-4-methoxy-3-(2-trifluoromethyl-benzyl)-1,3-dihydro-benzoimidazol-2-one] | 591
CCOC(=O)C1CN(C(=O)OC(C)(C)C)CCC1n1c(=O)n(Cc2ccccc2C(F)(F)F)c2c(OC)cccc21 (stereo not drawn) [Example 164, 4-[4-Methoxy-2-oxo-3-(2-trifluoromethyl-benzyl)-2,3-dihydro-benzoimidazol-1-yl]-piperidine-1,3-dicarboxylic acid 1-tert-butyl ester 3-ethyl ester] | 179
COc1cccc2c1n(Cc1ccccc1OC(C)C)c(=O)n2[C@@H]1CCN(c2c(C)cccc2F)C1 [Example 165, 1-[(R)-1-(2-Fluoro-6-methyl-phenyl)-pyrrolidin-3-yl]-3-(2-isopropoxy-benzyl)-4-methoxy-1,3-dihydro-benzoimidazol-2-one] | 6
COc1cccc2c1n(Cc1ccccc1OC(C)C)c(=O)n2C1CCN(c2c(C)cccc2F)CC1 [Example 166, 1-[1-(2-Fluoro-6-methyl-phenyl)-piperidin-4-yl]-3-(2-isopropoxy-benzyl)-4-methoxy-1,3-dihydro-benzoimidazol-2-one] | 17
COc1cccc2c1n(Cc1nccnc1C(F)(F)F)c(=O)n2[C@@H]1CCN(c2c(C)cccc2F)C1 [Example 167, 1-[(R)-1-(2-Fluoro-6-methyl-phenyl)-pyrrolidin-3-yl]-4-methoxy-3-(3-trifluoromethyl-pyrazin-2-ylmethyl)-1,3-dihydro-benzoimidazol-2-one] | 6
COc1cccc2c1n(Cc1nccnc1C(F)(F)F)c(=O)n2C1CCN(c2c(C)cccc2F)CC1 [Example 168, 1-[1-(2-Fluoro-6-methyl-phenyl)-piperidin-4-yl]-4-methoxy-3-(3-trifluoromethyl-pyrazin-2-ylmethyl)-1,3-dihydro-benzoimidazol-2-one] | 10
COc1nccnc1Cn1c(=O)n([C@@H]2CCN(c3c(C)cccc3F)C2)c2cccc(OC)c21 [Example 169, 1-[(R)-1-(2-Fluoro-6-methyl-phenyl)-pyrrolidin-3-yl]-4-methoxy-3-(3-methoxy-pyrazin-2-ylmethyl)-1,3-dihydro-benzoimidazol-2-one] | 17
COc1nccnc1Cn1c(=O)n(C2CCN(c3c(C)cccc3F)CC2)c2cccc(OC)c21 [Example 170, 1-[1-(2-Fluoro-6-methyl-phenyl)-piperidin-4-yl]-4-methoxy-3-(3-methoxy-pyrazin-2-ylmethyl)-1,3-dihydro-benzoimidazol-2-one] | 45
COc1cc(C)nc2c1n(Cc1ccccc1C(F)(F)F)c(=O)n2[C@@H]1CCN(c2c(C)cccc2F)C1 [Example 171, 3-[(R)-1-(2-Fluoro-6-methyl-phenyl)-pyrrolidin-3-yl]-7-methoxy-5-methyl-1-(2-trifluoromethyl-benzyl)-1,3-dihydro-imidazo[4,5-b]pyridin-2-one] | 64
COc1cccc2c1n(Cc1nnc(Cl)cc1OC(C)C)c(=O)n2[C@@H]1CCN(c2c(C)cccc2F)C1 [Example 172, 3-(6-Chloro-4-isopropoxy-pyridazin-3-ylmethyl)-1-[(R)-1-(2-fluoro-6-methyl-phenyl)-pyrrolidin-3-yl]-4-methoxy-1,3-dihydro-benzoimidazol-2-one] | 275
